These results are taken from patent publication US10793915B2, “Context dependent diagnostics test for guiding cancer treatment” (Eutropics Pharmaceuticals, Inc., priority 2015, dated 2020).

The test system of assay [1] is three suspension cancer cell lines. Nature of the assay: PraediCare Dx FACS BH3 profiling with BH3 mimetic compound applied to permeabilized cells. The class given is cell-based. Particulars: cell lines primed by NOXA. From the text:
To further probe MCL-1 dependencies we explored the utility of certain BH3 mimetic compounds to provide an alternative to the NOXA readout to determine MCL-1 dependency in cancer cells. Our approach was to directly apply membrane permeable BH3 mimetic compounds that selectively target MCL1. Doing so would add the advantage of directly observing on target activity of the therapeutic agent.

Assay [2] relates to AML blasts from patient peripheral blood or bone marrow. Put plainly: BH3 profiling (mitochondrial profiling): JC-1 mitochondrial depolarization (% priming) of gated AML blasts exposed to BH3 peptides. Format: cell-based, human. The conditions noted are these: for Median CR (n = 23) / Median CR (n = 13): complete remission patients; for Median NR (n = 29) / Median NR (n = 18): non-responders. The procedure:
Rows that are shaded grey are samples that failed the acceptance criteria of BH3 profiling during processing. […] Signal to noise is a measure of the DMSO JC-1 red mean fluorescence intensity (MFI) over the CCCP JC-1 read MFI. The cell counts and percent viability were determined by manual cell counting with trypan blue exclusion. Percent blasts are the percentages of CD45-dim, CD3/CD20 negative, and SSC-low of the permeabilized viable cells. All BH3 profiling was performed on those gated blast cells.
Briefly, frozen, extracted leukocyte samples were rapidly thawed, and cell viability was determined by Trypan Blue exclusion. Cells were washed in FACS buffer (1x PBS with 2% FBS) and immunophenotyped using fluorescently labeled CD45, CD3, and CD20 monoclonal antibodies. Cells were then resuspended in Newmeyer buffer (10 mM Trehalose, 10 mM HEPES, 80 mM KCl, 20 μM EGTA, 20 μM EDTA, 5 mM succinate, pH 7.4) for the perturbation step. The BH3 peptides were diluted in Newmeyer buffer to make working solutions resulting in final concentrations of: BIM (100 μM), BIM (0.1 μM), NOXA (100 μM), Puma (10 μM), HRK (100 μM), BAD (100 μM), and BID (1.0 μM). DMSO and CCCP were used as negative and positive peptide controls. Digitonin and oligomycin were added to individual FACS tubes, followed by the BH3 peptides. Cells were then added to the FACS tubes and incubated for 2 hours and 15 minutes at room temperature, in order for cell permeabilization, delivery of peptides or compounds, and mitochondrial depolarization to occur. After the incubation, JC-1 dye was prepared in Newmeyer buffer and added to directly to the treated cells. An additional tube of cells that was not treated with a peptide or compound was stained with propidium iodide (PI) to ensure that cells were effectively permeabilized by the digitonin. After 45 minutes of incubation with JC-1, cells were analyzed on a three laser BD FACSCanto II. AML Blasts were gated based on four parameters: 1) permeabilization (as determined by PI staining), 2) singlet discrimination based on SSC, 3) CD45 dim and CD3/CD20 negative, and 4) SSC low. The median JC-1 red fluorescence of the gated blast population was then used to calculate % depolarization as compared to DMSO (negative) and CCCP (positive) controls.
For each peptide, the percentage priming was calculated using the following formula that determines the priming based on the DMSO negative control as completely unprimed and the CCCP as a 100% primed reference:
For analysis, all patients not classified as CR were treated as non-responders [Minimal Residual Disease (MRD), Partial Remission (PR), and TF (treatment failure)]. Student's t-tests, Mann-Whitney rank-sum non-parametric tests, multi-variate logistic regression, and ROC curve analyses, between the BH3 peptides (and other tumor characteristics, such as cytogenetics, etc.) and response, were calculated using GraphPad Prism Version 5.04 and MedCalc Version 14.8.1.

[3] abbreviates: Table 6, median percentage priming, all samples.
Where [4] appears, read: Table 8, median percentage priming, bone marrow samples only.
Where [5] appears, read: median percentage priming, bone marrow samples only.

Regarding `CCN1CCN(C(c2ccc(C(F)(F)F)cc2)c2ccc3cccnc3c2O)CC1` (stereo not drawn) [EU5346], the “mitochondrial response to the compound (priming)” value in assay [1] is on record as “responsive”.
In the case of “NOXA: NOXA BH3 peptide, 100 μM; in some aspects AELPPEFAAQLRKIGDKVYC (SEQ ID NO:1) (listed as Homo sapiens)”, the “Median CR (n = 23)” value in assay [2] (setting [3]) was found to be 17.2; in assay [2] (median percentage priming of blasts, all samples (blood and marrow)) it was 17.2. In addition, the “Median NR (n = 29)” value in assay [2] (setting [3]) came out at 20.2; in assay [2] (median percentage priming of blasts, all samples (blood and marrow), BIM 100/0.1 μM, NOXA 100 μM, Puma 10 μM, HRK 100 μM, BAD 100 μM, BID 1.0 μM), 20.2. Besides, the “Median CR (n = 13)” value in assay [2] (setting [4]) and in assay [2] (setting [5]) was 44.5 each time. For the same compound, the “Median NR (n = 18)” value in assay [2] (setting [4]) and in assay [2] (setting [5]) was 5.2 throughout. Besides, in assay [2] (all responses, all profiled patient samples), the “median depolarization (priming)” value is recorded as 16.0%. The “NOXA priming in patients that did not respond” value in assay [2] (bone marrow samples only) was 5.2%. In addition, the “NOXA priming in patients that respond to treatment” value in assay [2] (bone marrow samples only) was determined as 44.5%.
